Consider two compounds from patent US20030113312A1, “Skin barrier function and cohesion through enhanced stratum corneum acidification” (The Regents of the University of California, priority 2001, published 2003).

Data set [1] concerns desmosomes in the lower stratum corneum. Briefly: Desmosome density by microscopy and desmoglein-1 immunostaining. It counts as in vivo, mouse. As to conditions: for density of desmosomes in lower stratum corneum and at SC-SG interface: inhibitor-treated murine skin vs controls. From the text: Ultrastructural methods: Freshly obtained biopsies from mouse skin were fixed directly in modified Karnovsky's fixative, postfixed with reduced osmium tetroxide (OS04) and then imbedded in an Epon-epoxy mixture. For visualization of lipid-enriched, lamellar bilayer structures, some samples were post fixed in ruthenium tetroxide (RuO4). Sections were cut on a Reichert Ultracut E microtome, counterstained with uranyl acetate and lead citrate, and viewed in a Zeiss 10 CR electron microscope, operated at 60 kV.
Immunofluorescence Staining: Hairless mouse skin was excised with a 6 mm punch biopsy, and the subcutaneous fat was removed. Tissue sections were incubated for 1 hour in blocking buffer (1% bovine serum albumin, 0.1% cold water fish gelatin in phosphate buffered saline (PBS)), and were then incubated for 1 hour further at room temperature with 1:500 dilution of polyclonal rabbit anti-mouse desmoglein 1 antibody (gift of Dr. John Stanley, University of Pennsylvania) diluted in blocking buffer. The tissue was then washed with blocking buffer and incubated one hour at room temperature with floroscien-labeled, isothiocyanate-conjugated, goat anti-rabbit IgG antibody (DAKO, Carpinteria, Calif., USA), diluted in blocking buffer. Either preincubation of DSG 1 antibody with DSG 1-recombinant protein (gift of Dr. Masayuki Amagai, Keio University, Tokyo, Japan), or omission of the DSG 1 primary antibody eliminated specific staining. Tissue sections then were washed with PBS and coverslipped before visualization under confocal microscope (Leica TCS SP, Heidlberg, Germany) using FITC at an excitation wavelength of 494 nm and an emisson wavelength of 518 nm.
To further investigate the changes in stratum corneum cohesion that are brought about by application of secretory phospholipase A2 inhibitors, BPB and MJ33 treated samples of murine skin and the corresponding untreated controls, were assessed by immunohistochemical staining and confocal microscopy. […]

The subject of data set [2] is hairless mice skin (stratum corneum). Briefly: Barrier function by transepidermal water loss (TEWL). It counts as in vivo, mouse. On the procedure:
Animals: Male hairless mice (Skh1/Hr, Charles River Laboratories, Wilmington, Mass.), 8-12 weeks old, were fed Purina mouse diet and water ad libitum. […] Each litter was genotyped separately. Functional experiments were performed on animals aged 6-10 weeks.
The mice were anesthetized with chloral hydrate (Morton Grove Pharmaceuticals, Morton Grove, Ill., USA). After 3 hours immersion at 37° C., the mice were removed, and the remaining buffer was gently blotted off. After 15 minutes, barrier function was determined by measurement of transepidermal water loss (TEWL) with an electrolytic water analyzer (MEECO®, Warrington, Pa.). Surface pH was measured with a flat, glass surface electrode from Mettler-Toledo (Giessen, Germany), attached to a pH meter (Skin pH Meter PH 900, Courage & Khazaka, Cologne, Germany). Individually tested sites were covered with Hilltop Chambers (HtC, nominal volume […]), which were reapplied following each indvidual measurement.

Data set [3] has the same test system. Briefly: Stratum corneum integrity: TEWL after sequential tape stripping. The format is in vivo, mouse.
Description: The mice were anesthetized with chloral hydrate (Morton Grove Pharmaceuticals, Morton Grove, Ill., USA). […] After 15 minutes, barrier function was determined by measurement of transepidermal water loss (TEWL) with an electrolytic water analyzer (MEECO®, Warrington, Pa.). […] Individually tested sites were covered with Hilltop Chambers (HtC, nominal volume 200 mL), which were reapplied following each indvidual measurement.
The stratum corneum was removed by several strippings with adhesive tape (Tesa, Beiersdorf, Germany) inducing an increase in TEWL rates above baseline (from 0.2 to approximately 7-9 g/m^2/h). Two sites were prepared on each animal, and TEWL and surface pH were measured at 0, 2, 5 and 24 hrs following the stripping and the applications of inhibitors.
The test system is the same in data set [4]. Briefly: Skin surface pH after topical treatment or buffer exposure. The format is in vivo, mouse. As to conditions: for pH of the stratum corneum: BPB alone, three days.
Description: Animals: Male hairless mice (Skh1/Hr, Charles River Laboratories, Wilmington, Mass.), 8-12 weeks old, were fed Purina mouse diet and water ad libitum. […] Functional experiments were performed on animals aged 6-10 weeks.
The mice were anesthetized with chloral hydrate (Morton Grove Pharmaceuticals, Morton Grove, Ill., USA). After 3 hours immersion at 37° C., the mice were removed, and the remaining buffer was gently blotted off. After 15 minutes, barrier function was determined by measurement of transepidermal water loss (TEWL) with an electrolytic water analyzer (MEECO®, Warrington, Pa.). Surface pH was measured with a flat, glass surface electrode from Mettler-Toledo (Giessen, Germany), attached to a pH meter (Skin pH Meter PH 900, Courage & Khazaka, Cologne, Germany). Individually tested sites were covered with Hilltop Chambers (HtC, nominal volume 200 mL), which were reapplied following each indvidual measurement.
Another data set concerns Murine skin. Particulars: 4 mg/mL topical in propylene glycol:ethanol; cited from earlier work.
Data set [5] relates to hairless mice skin (stratum corneum). Briefly: Stratum corneum cohesion: protein removed per D-Squame stripping. The format is in vivo, mouse. As to conditions: after three days of inhibitor treatment alone; vehicle about 5.
Description: Before stripping the stratum corneum, the skin surface was cleaned with a single ethanol wipe. D-Squame tapes then were placed sequentially to the test areas for about 3 sec each, removed with forceps, and stored in glass scintillation vials at 5° C.
The protein content per stripping was determined with the Bio-Rad protein assay kit. […] Each tape was incubated with 1 M NaOH for 1 hour at 37° C. in an incubator shaker at 80 rpm, and neutralized thereafter with 1 mL of 1 M HCl in the scintillation vials. Subsequently, 0.2 mL of this solution was incubated in 0.6 ml distilled water plus 0.2 mL of the Bio-Rad protein dye for 5 minutes in boroscillate tubes. […] An empty D-Squame tape, as well as distilled water incubated with Bio-Rad dye, served as negative controls. The amount of calculated protein was then normalized to skin surface area (μg/cm^2).

Where “and” joins values, the source holds several entries; their conditions need not be identical. Equal entries are not always repeated.

For the compound `CCCCCCCCCCCCCCCCOCC(COCC(F)(F)F)OP(=O)(O)OC` (stereo not shown) [MJ33, One-hexadecyl-3-triflouroethylglycero-sn-2-phosphomethanol], the “density of desmosomes in lower stratum corneum and at SC-SG interface” value in data set [1] is recorded as “dramatic reduction”. The “fold increase in TEWL rates” value in data set [2] (by day three, vs vehicle) is recorded as 2-3 fold. Moreover, in data set [2] (repeated applications, day three, vs vehicle 2.97+/-0.16, p<0.001), the TEWL rate is 5.19+/−0.81. The “TEWL rate after three consecutive tape strips” value in data set [3] (day 3 of inhibitor treatment alone, vehicle closer to 40) was approximately 75 g/m^2/h. Moreover, the “stratum corneum surface pH” value in data set [4] (MJ33 4 mg/mL topical, vs vehicle 5.60+/-0.05, p=0.0023) is 5.87+/−0.06. Besides, the “toxicity of the dose employed to Murine skin” value with Murine skin was “non-toxic”.
Take `O=C(CBr)c1ccc(Br)cc1` [BPB, bromphenacyl bromide]: the “protein removed, first D-Squame strip” value in data set [5] is listed as “about 20 μg/cm^2”. In addition, the “density of desmosomes in lower stratum corneum and at SC-SG interface” value in data set [1] is given as “dramatic reduction”. In data set [1] (laser confocal microscopy, treated vs vehicle stratum corneum), the “density of DSG1 positive clusters” value is recorded as “decline dramatically”. Besides, the TEWL rate in data set [2] (4 mg/mL topical twice daily, day 2, vehicle closer to 2.5) is listed as approximately 6 g/m^2/h; in data set [2] (4 mg/mL topical twice daily, day three, vehicle near 3), approximately 11 g/m^2/h. The “TEWL rate after fifth tape strip” value in data set [3] (after three days of inhibitor treatment alone, vehicle close to 25) is ~90 g/m^2/h and 80-100 g/m^2/h. In addition, the “TEWL rate after second tape strip” value in data set [3] (after three days of inhibitor treatment alone, vehicle closer to 5) was approximately 20 g/m^2/h. The “pH of the stratum corneum” value in data set [4] (comparator of the linoleic acid co-application) is 6.28+/−0.1; in data set [4] (comparator of the palmitic acid co-application), 5.92+/−0.05; in data set [4] (comparator of the stearic acid co-application) it was 6.17+/−0.08. The “pH of the skin” value in data set [4] (hairless mice, 4 mg/mL topical twice daily, after one day, starting value about pH 5.6) is approximately 6.0 pH. For the same compound, the “final average pH of treated sites” value in data set [4] (hairless mice, 4 mg/mL topical twice daily, day 3, vehicle close to pH 5.4) was approximately 6.4 pH. In addition, the “toxicity of the dose employed to Murine skin” value with Murine skin is “non-toxic”.
